Experimental data reported in article PMC12567096, “An Efficacy- and In Vivo Exposure-Oriented Integrated Study to Investigate the Effective Components of Qishen Granule” (Pharmaceuticals, 2025).
Values belong to the compound of their own block, whether it stands above or below them.

How the values were obtained:
[1] = tested on: OGD/R-induced H9c2 cells; test: Protective effect on OGD/R-induced H9c2 cells (CCK-8 cell viability); type: cell-based, rat; conditions: for H9c2 cell survival after OGD/R (in words): 1, 10, 25, 50 and 100 μM prior to OGD/R, vs model group; for EC50: protective effect against OGD/R injury, H9c2 cell viability
Experimental: (§1) Rat myocardial H9c2 cells (purchased from China Infrastructure of Cell Line Resources, Institute of Basic Medical Sciences, Chinese Academy of Medical Sciences) were cultured in DMEM supplemented with 10% fetal bovine serum (FBS), Penicillin (100 U/mL), and Streptomycin (100 μg/mL) at 37 °C under a humidified atmosphere of 5% CO2 and 95% air. For OGD/R treatment, H9c2 cells were cultured in glucose-free DMEM under hypoxic conditions (95%N2 + 5%CO2) for 4 h at 37 °C followed by complete medium under normal conditions with air (95%) and CO2 (5%) for 2 h. A control group was maintained under normal culture conditions (with glucose-containing DMEM and 5% CO2) without undergoing OGD/R treatment. CCK8 was used to assess cell viability. After treatment, H9c2 cells were seeded in 96-well plates, with each well supplemented with 10 μL of CCK-8 solution and then incubated for 1 h. Finally, the absorbance at 450 nm was detected by a microplate reader (Model […] 200 PRO, TECAN, Grodig, Austria).
(§2) When evaluating the cytotoxicities of the absorbed compounds, the H9c2 cells were seeded in 96-well plates at a density of 1 × 10^4 cells/well; when cells reached 80% confluence, they were treated with 25 and 50 μM of the 24 analytes to screen the non-toxic concentration ranges. Afterward, the protective effects were verified by assessing the cell viability when treating with different concentrations (1, 10, 25, 50, and 100 μM) of the analytes prior to OGD/R treatment.

[2] = Concentrations of 24 analytes in QSG treated plasma (Table S5); conditions: for Concentration: QSG treated plasma, n = 5; for concentration at 0.08 h / concentration at 0.17 h / concentration at 0.5 h / concentration at 1 h / concentration at 2 h / concentration at 4 h / concentration at 8 h / concentration at 12 h: Sprague Dawley, rat, plasma, oral, 7 g/kg
[3] = Pharmacokinetic study in rats after oral administration of QSG; conditions: for AUCi: exposure (AUC0→∞) of the component in rats after oral QSG, as used for ECI; for Oral relative bioavailability: exposure level (AUC0→∞) compared with the dosage of each compound in QSG; for Absorption efficiency / bioavailability (in words): from Table S12, rats; for AUC(0-inf): AUC0→∞
[4] = tested on: H9c2 cells; test: Cytotoxicity on H9c2 cells (CCK-8); type: cell-based, rat; conditions: for Inhibition rate / inhibition at 25 µM / inhibition at 50 µM / inhibition at 100 µM: H9c2 cells, n=3; for Effect on H9c2 cell viability / cytotoxicity (in words): CCK-8, compared to the control group; for inhibition at 25 µM / inhibition at 50 µM / inhibition at 100 µM: Rattus norvegicus, read-out: Inhibition rate
Experimental: as §1
as §2, with “they were treated with 25 and 50 μM of the 24 analytes to screen the non-toxic concentration ranges.” left out

[5] = rat plasma, single oral 7 g/kg QSG, n = 6
[6] = Sprague Dawley, rat, plasma, po, 7 g/kg
[7] = Sprague Dawley, rat, plasma, po, 7 g/kg, rat plasma, single oral 7 g/kg QSG, n = 6

Compound: Salvianolic acid B
H9c2 cell survival after OGD/R (in words) [1]: significantly improve H9c2 cell survival rates | Concentration ([2]; 0.08 h): 68.337 ± 49.223 ng/mL | Concentration ([2]; 0.17 h): 115.490 ± 60.235 ng/mL | Concentration ([2]; 0.5 h): 174.763 ± 84.875 ng/mL | Concentration ([2]; 1 h): 83.989 ± 21.934 ng/mL | Concentration ([2]; 2 h): 47.989 ± 9.996 ng/mL | Concentration ([2]; 4 h): 34.225 ± 16.349 ng/mL | Concentration ([2]; 8 h): 91.217 ± 8.136 ng/mL | Concentration ([2]; 12 h): 56.609 ± 10.151 ng/mL | AUC0→∞ ([3]; Table S12, rats, oral QSG): 2176 ng·h/mL | AUCi [3]: 2176 | Oral relative bioavailability [3]: 0.013% | Absorption efficiency / bioavailability (in words) ([3]; oral QSG): much lower than most compounds | AUC0→t [3, 5]: 1475 ± 187.4 ng·h/mL | AUC0→∞ [3, 5]: 2176 ± 842.3 ng·h/mL | Cmax [3, 5]: 205.3 ± 65.50 ng/mL | MRT [3, 5]: 11.08 ± 1.809 h | T1/2 [3, 5]: 10.83 ± 5.740 h | Tmax [3, 5]: 0.566 ± 0.182 h | MRT ([3]; rat plasma, single oral 7 g/kg QSG, n = 6, listed as salvianolic acid B): more than 10 h | Shape of the plasma concentration–time curve (in words) ([3]; rats, oral QSG): Double peaks | Share of the total exposures (AUC0→∞) of all analytes ([3]; rats, oral QSG, 11 analytes): 43.48% | Inhibition rate ([4]; 25 μM): -38.9 ± 5.2% | Inhibition rate ([4]; 50 μM): -17.1 ± 7.2% | Inhibition rate ([4]; 100 μM): 0.1 ± 3.2% | Effect on H9c2 cell viability / cytotoxicity (in words) [4]: significantly enhanced cell viabilities

concentration at 0.08 h [2]: 5.84 ± 1.29 ng/mL | concentration at 0.17 h [2]: 13.6 ± 4.12 ng/mL | concentration at 0.5 h [2]: 4.37 ± 1.59 ng/mL | concentration at 1 h [2]: 2.41 ± 0.697 ng/mL | concentration at 2 h [2]: 0.911 ± 0.249 ng/mL | concentration at 4 h [2]: 0.251 ± 0.183 ng/mL | concentration at 8 h [2]: 0.188 ± 0.101 ng/mL | concentration at 12 h [2]: 0.042 ± 0.044 ng/mL | AUC [3, 6]: 10.9 ng·h/mL | AUC(0-t) [3, 6]: 10.3 ± 0.93 ng·h/mL | Cmax [3, 6]: 12.8 ± 4.12 ng/mL | MRT [3, 6]: 1.84 ± 0.448 h | Tmax [3, 6]: 0.17 h | half-life [3, 6]: 2.6 ± 1.22 h | AUC(0-inf) [3, 7]: 10.9 ± 0.867 ng·h/mL
Compound: O=c1cc(-c2ccc(O)c(O)c2)oc2cc(O)cc(O)c12 [Luteolin]
H9c2 cell survival after OGD/R (in words) [1]: significantly improve H9c2 cell survival rates | EC50 ([1]; Rattus norvegicus): 11.3 µM | inhibition at 25 µM ([4]; 25 μM): 12.2 ± 4% | inhibition at 50 µM ([4]; 50 μM): 13.1 ± 7.2% | inhibition at 100 µM ([4]; 100 μM): 18.1 ± 4.2%

concentration at 0.08 h [2]: 0.69 ± 0.227 ng/mL | concentration at 0.17 h [2]: 1.65 ± 0.585 ng/mL | concentration at 0.5 h [2]: 0.454 ± 0.151 ng/mL | concentration at 1 h [2]: 0.355 ± 0.17 ng/mL | concentration at 2 h [2]: 0.179 ± 0.041 ng/mL | concentration at 4 h [2]: 0.231 ± 0.054 ng/mL | concentration at 8 h [2]: 0.053 ± 0.038 ng/mL | concentration at 12 h [2]: 0.124 ± 0.092 ng/mL | AUC [3, 6]: 4.89 ng·h/mL | AUC(0-t) [3, 6]: 3.17 ± 0.843 ng·h/mL | Cmax [3, 6]: 1.65 ± 0.585 ng/mL | MRT [3, 6]: 7.68 ± 2.17 h | Tmax [3, 6]: 0.17 h | half-life [3, 6]: 12.4 ± 10.5 h | AUC(0-inf) ([3]; Sprague Dawley, rat, plasma, po, 7 g/kg, Table S12, rats, oral QSG): 4.89 ng·h/mL | AUC(0-inf) [3, 7]: 4.89 ± 2.77 ng·h/mL | Shape of the plasma concentration–time curve (in words) ([3]; rats, oral QSG): Double peaks
Compound: O=C(/C=C/c1ccc(O)cc1)c1ccc(O)cc1O [Isoliquiritigenin]
H9c2 cell survival after OGD/R (in words) [1]: significantly improve H9c2 cell survival rates | EC50 ([1]; Rattus norvegicus): 10.3 µM | inhibition at 25 µM ([4]; 25 μM): -14.9 ± 9.3% | inhibition at 50 µM ([4]; 50 μM): -1.2 ± 7.6% | inhibition at 100 µM ([4]; 100 μM): 7.2 ± 4.2%

Compound: O=C(/C=C/c1ccc(O)c(O)c1)O[C@H]1[C@H](O)C[C@](O)(C(=O)O)C[C@H]1OC(=O)/C=C/c1ccc(O)c(O)c1 [Isochlorogenic acid C]
H9c2 cell survival after OGD/R (in words) [1]: significantly improve H9c2 cell survival rates | EC50 [1]: 1.09 µM | Concentration ([2]; 0.08 h): 12.829 ± 7.386 ng/mL | Concentration ([2]; 0.17 h): 23.904 ± 9.523 ng/mL | Concentration ([2]; 0.5 h): 18.491 ± 8.090 ng/mL | Concentration ([2]; 1 h): 11.005 ± 7.334 ng/mL | Concentration ([2]; 2 h): 7.777 ± 3.293 ng/mL | Concentration ([2]; 4 h): 2.637 ± 2.154 ng/mL | Concentration ([2]; 8 h): 7.703 ± 2.363 ng/mL | Concentration ([2]; 12 h): 1.848 ± 1.625 ng/mL | AUC0→∞ ([3]; Table S12, rats, oral QSG): 170.5 ng·h/mL | AUCi [3]: 170.5 | Oral relative bioavailability [3]: 0.008% | Absorption efficiency / bioavailability (in words) ([3]; oral QSG): less readily absorbed | AUC0→t [3, 5]: 116.3 ± 39.63 ng·h/mL | AUC0→∞ [3, 5]: 170.5 ± 80.02 ng·h/mL | Cmax [3, 5]: 33.95 ± 8.980 ng/mL | MRT [3, 5]: 8.361 ± 4.800 h | T1/2 [3, 5]: 16.43 ± 14.14 h | Tmax [3, 5]: 0.334 ± 0.165 h | Shape of the plasma concentration–time curve (in words) ([3]; rats, oral QSG): Double peaks | Inhibition rate ([4]; 25 μM): -11.8 ± 6.3% | Inhibition rate ([4]; 50 μM): -16.6 ± 1.3% | Inhibition rate ([4]; 100 μM): -6.3 ± 2.3% | Effect on H9c2 cell viability / cytotoxicity (in words) [4]: significantly enhanced cell viabilities
